The record followed here is patent US12398121B2 (Nuvation Bio Inc., priority 2018, dated 2025).

The assay deals with T1, ER Alpha-LBD (GST) (Homo sapiens, UniProt P03372).
T1 construct: purchased Thermo Fisher
T1 sequence (P03372 311-547 limits assumed): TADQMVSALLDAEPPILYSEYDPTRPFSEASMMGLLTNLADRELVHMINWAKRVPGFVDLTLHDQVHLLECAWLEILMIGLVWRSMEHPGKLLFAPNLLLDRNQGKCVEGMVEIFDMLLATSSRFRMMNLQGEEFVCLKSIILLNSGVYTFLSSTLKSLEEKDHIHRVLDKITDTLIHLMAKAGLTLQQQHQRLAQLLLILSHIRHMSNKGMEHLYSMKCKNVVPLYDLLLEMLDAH
The experiment in a line: ER binding assay (LanthaScreen TR-FRET ER Alpha Competitive Binding Assay). The settings on record: Fluormone ES2 Green tracer, read-out: ERα Ki. As to the method:
Cells were plated at varying density in the respective growth medium in 96 well plates. 24 hr later, cells were treated, in triplicate or quadruplicate, with test articles prepared in a range of concentrations by series dilution of DMSO stock solutions in growth medium and incubated for three to seven days. The number of viable 22RV1 and HT-29 cells was measured using CellTiter Glo assay (CTG, Promega, Madison, WI) after three days of treatment. The other types of cancer cells were re-treated at three or four days and the number of viable cells was measured using CTG assay after a total treatment time of six or seven days. Cell viability data were plotted using GraphPad Prism (GraphPad Software, Inc., San Diego, CA). In addition, a nonlinear regression model with a sigmoidal dose response and variable slope within GraphPad Prism was used to calculate the IC50 value of individual test articles. Additional cell proliferation assays: Other cancer cell lines are tested in a cell proliferation assay. For example, SK-OV-3 or OVCAR3 ovarian cancer cells are tested. Cells are cultured in medium recommended by the supplier (e.g., ATCC or JCRB Cell Bank), at 37° C. in a 5% CO2 environment. For the proliferation assay, cells are plated in the growth medium in 96 well plates. Seeding density is adjusted according to the cell type. […] The number of viable cells is measured using CellTiter Glo assay (CTG, Promega, Madison, WI) or similar. […] ER binding assay: ERα binding was assessed by the LanthaScreen® TR-FRET ER Alpha Competitive Binding Assay at Thermo Fisher. […] Competitive binding to the ER Alpha-LBD (GST) was detected by a test compound's ability to displace a fluorescent ligand (Fluormone™ ES2 Green tracer) from the ER Alpha-LBD (GST), which results in a loss of FRET signal between the Tb-anti-GST antibody and the tracer. […] After an incubation period at room temperature, the TR-FRET ratio of 520:495 emissions were calculated and was used to determine the IC50 from a dose response curve of the compound. […]
For orientation: Time-resolved FRET reads energy transfer from a long-lived donor to a nearby acceptor.

The Ki is a measure of affinity in units of concentration, obtained from inhibition or displacement. In the case of `CCC(=C(c1ccc(O)cc1)c1ccc(OCCN2CCN(C(=O)c3cc(Cc4n[nH]c(=O)c5ccccc45)ccc3F)CC2)cc1)c1ccccc1` [Compound 2.14, 4-(4-fluoro-3-(4-(2-(4-(1-(4-hydroxyphenyl)-2-phenylbut-1-enyl)phenoxy)ethyl)piperazine-1-carbonyl)benzyl)pthalazin-1(2H)-one], the inhibitory constant (Ki) is 3.5 nM. Then `CN(CCCCCC(=O)N1CCN(C(=O)c2cc(Cc3n[nH]c(=O)c4ccccc34)ccc2F)CC1)CCOc1ccc(C(=O)c2c(-c3ccc(O)cc3)sc3cc(O)ccc23)cc1` [Compound 2.4, 4-(4-fluoro-3-(4-(6-((2-(4-(6-hydroxy-2-(4-hydroxyphenyl)benzo[b]thiophene-3-carbonyl)phenoxy)ethyl)(methyl)amino)hexanoyl)piperazine-1-carbonyl)benzyl)phthalazin-1(2H)-one], with 5 nM; and `O=C(c1ccc(OCCN2CCN(C(=O)c3cc(Cc4n[nH]c(=O)c5ccccc45)ccc3F)CC2)cc1)c1c(-c2ccc(O)cc2)sc2cc(O)ccc12` [Compound 2.13, 4-(4-fluoro-3-(4-(2-(4-(6-hydroxy-2-(4-hydroxyphenyl)benzo[b]thiophene-3-carbonyl)phenoxy)ethyl)piperazine-1-carbonyl)benzyl)phthalazin-1(2H)-one], with 3.3 nM.
